Where two headings read alike, the source gives them in different places.
Assays:
cyclooxygenase = molecular target: T1, cyclooxygenase (Rattus norvegicus, UniProt Q63921); assay: Inhibition of cyclooxygenase derived from rat basophilic leukemia (RBL-1) cells, product C1 (PGD2); format: biochemical; settings: for inhibition at 1 µM: dose of 1 μM
T1 construct: microsomal fraction containing lipoxygenase and cyclooxygenase; endogenous in cells; host or cells: RBL-1 (rat basophilic leukemia) cells, homogenate / microsomal fraction
T1 sequence (Q63921 27-602): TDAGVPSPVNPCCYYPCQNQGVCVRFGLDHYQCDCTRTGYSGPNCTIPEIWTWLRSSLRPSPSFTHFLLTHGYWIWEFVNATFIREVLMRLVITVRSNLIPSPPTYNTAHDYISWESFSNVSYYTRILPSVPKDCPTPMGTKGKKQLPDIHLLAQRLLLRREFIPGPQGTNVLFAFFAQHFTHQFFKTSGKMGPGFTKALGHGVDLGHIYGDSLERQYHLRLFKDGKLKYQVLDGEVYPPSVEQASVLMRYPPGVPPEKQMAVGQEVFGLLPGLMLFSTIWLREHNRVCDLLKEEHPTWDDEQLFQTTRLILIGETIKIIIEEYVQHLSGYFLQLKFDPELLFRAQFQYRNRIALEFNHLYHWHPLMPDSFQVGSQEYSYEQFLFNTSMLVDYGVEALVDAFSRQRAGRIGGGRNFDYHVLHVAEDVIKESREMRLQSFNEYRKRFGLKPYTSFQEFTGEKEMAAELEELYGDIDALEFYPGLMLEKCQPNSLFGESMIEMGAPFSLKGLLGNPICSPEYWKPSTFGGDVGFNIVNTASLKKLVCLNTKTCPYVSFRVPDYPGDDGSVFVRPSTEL
Description: (§1) The primary screening test used is a determination of the inhibition of lipoxygenase and cyclooxygenase derived from rat basophilic leukemia (RBL-1) cells. The test was carried out according to the following procedure:
(§2) Single cell suspensions of RBL-1 cells are homogenized to obtain the microsomal fraction containing lipoxygenase and cyclooxygenase. Test compounds are added to the enzyme-containing homogenate for a 5 min preincubation period at 37° C. prior to the addition of ^14 C-arachidonic acid substrate. Following incubation at 37° C. for 15 min, the reaction is stopped by the addition of 2M formic acid and the enzyme-substrate products are extracted into chloroform. An aliquot of the extract is evaporated to dryness, reconstituted in ether to 1/10 original volume, spotted in thin layer chromatography plates and chromatographed. The peak areas of radioactivity representing the products are located by scanning the plates. The quantity of products formed is estimated by measuring the height of the radioactivity peaks observed on the chromatographic scans. Alternatively, the areas of radioactivity are scraped from the plate and the ^14 C quantitated by scintillation counting.

lipoxygenase = molecular target: T2, lipoxygenase (Rattus norvegicus, UniProt P12527); assay: Inhibition of lipoxygenase derived from rat basophilic leukemia (RBL-1) cells, products L1 (5,12-di-HETE) and L2 (5-HETE); format: biochemical; settings: for inhibition at 10 µM: dose of 10 μM
T2 construct: microsomal fraction containing lipoxygenase and cyclooxygenase; endogenous in cells; host or cells: RBL-1 (rat basophilic leukemia) cells, homogenate / microsomal fraction
T2 sequence (P12527 1-673): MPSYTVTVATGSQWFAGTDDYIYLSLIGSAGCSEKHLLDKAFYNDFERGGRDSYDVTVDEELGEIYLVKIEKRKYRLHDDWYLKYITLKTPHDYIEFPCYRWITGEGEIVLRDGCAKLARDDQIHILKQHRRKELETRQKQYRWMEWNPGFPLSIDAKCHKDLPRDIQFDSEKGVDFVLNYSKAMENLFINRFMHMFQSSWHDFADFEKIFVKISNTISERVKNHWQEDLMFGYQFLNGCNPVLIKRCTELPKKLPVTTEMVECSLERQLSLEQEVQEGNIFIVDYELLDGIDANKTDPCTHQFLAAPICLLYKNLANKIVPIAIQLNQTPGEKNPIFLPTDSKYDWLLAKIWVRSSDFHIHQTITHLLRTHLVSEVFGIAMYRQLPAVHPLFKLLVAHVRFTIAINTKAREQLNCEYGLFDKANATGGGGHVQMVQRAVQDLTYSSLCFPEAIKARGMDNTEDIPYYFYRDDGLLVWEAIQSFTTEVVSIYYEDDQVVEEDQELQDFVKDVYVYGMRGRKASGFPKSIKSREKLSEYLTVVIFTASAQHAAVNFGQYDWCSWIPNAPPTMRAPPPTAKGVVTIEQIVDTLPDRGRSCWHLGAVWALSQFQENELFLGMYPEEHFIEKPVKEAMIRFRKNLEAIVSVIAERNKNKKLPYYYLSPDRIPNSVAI
Description: as §1, §2

[1] = read-out: % Inhibition of cyclooxygenase (C1) formation
[2] = dose of 1 μM, L1 = 5,12-di-HETE, read-out: % Inhibition of lipoxygenase (L1) formation
[3] = dose of 1 μM, L2 = 5-HETE, read-out: % Inhibition of lipoxygenase (L2) formation
[4] = read-out: % Inhibition of lipoxygenase (L1) formation
[5] = read-out: % Inhibition of lipoxygenase (L2) formation

Row | SMILES | inhibition at 1 µM (cyclooxygenase; [1]) | inhibition at 1 µM (lipoxygenase; [2]) | inhibition at 1 µM (lipoxygenase; [3]) | IC50 (cyclooxygenase) | IC50 (lipoxygenase; IC50 L1, L1 = 5,12-di-HETE) | IC50 (lipoxygenase; IC50 L2, L2 = 5-HETE) | inhibition at 1 µM (lipoxygenase; [4]) | inhibition at 1 µM (lipoxygenase; [5]) | inhibition at 10 µM (cyclooxygenase; dose of 10 μM, read-out: % Inhibition of cyclooxygenase (C1) formation) | inhibition at 10 µM (lipoxygenase; L1 = 5,12-di-HETE, read-out: % Inhibition of lipoxygenase (L1) formation) | inhibition at 10 µM (lipoxygenase; L2 = 5-HETE, read-out: % Inhibition of lipoxygenase (L2) formation)
1 | CCN(C)C(=O)c1ccccc1Nc1ccc(O)cc1 [Example 13(b), 2-(4-Hydroxyphenylamino)-N-ethyl-N-methylbenzamide] | 0% | 66% | 77% | – | – | – | – | – | – | – | –
2 | CCCN(CC)C(=O)c1ccccc1Nc1ccc(O)cc1 [Example 14(b), 2-(4-Hydroxyphenylamino)-N-ethyl-N-propylbenzamide] | 0% | – | – | > 1000 nM | 180 nM | 110 nM | 78% | 95% | – | – | –
3 | O=C(c1ccccc1Nc1ccccc1O)N1CCCCC1 [Example 15(d), 1-[2-(2-Hydroxyphenylamino)benzoyl]piperidine] | 2% | – | – | > 1000 nM | 720 nM | 180 nM | 58% | 80% | – | – | –
4 | O=C(c1ccccc1Nc1ccc(O)cc1)N1CCOCC1 [Example 16(c), 4-[2-(4-Hydroxyphenylamino)benzoyl]morpholine] | 1% | 37% | 42% | – | – | – | – | – | – | – | –
5 | CCN(CC)C(=O)c1cc(Cl)ccc1Nc1ccc(O)cc1 [Example 17(d), 5-Chloro-N,N-diethyl-2-(4-hydroxyphenylamino)benzamide] | 0% | 56% | 73% | – | – | – | – | – | – | – | –
6 | O=C(c1cc(Cl)ccc1Nc1ccc(O)cc1)N1CCCCC1 [Example 18(b), 1-[5-Chloro-2-(4-hydroxyphenylamino)benzoyl]piperidine] | 16% | 63% | 75% | – | – | – | – | – | – | – | –
7 | O=C(c1ccc(Cl)cc1Nc1ccc(O)cc1)N1CCCC1 [Example 19(d), 1-[4-Chloro-2-(4-hydroxyphenylamino)benzoyl]pyrrolidine] | 7% | 24% | 42% | – | – | – | – | – | – | – | –
8 | O=C(c1ccc(Cl)cc1Nc1ccc(O)cc1)N1CCCCC1 [Example 20(b), 1-[4-Chloro-2-(4-hydroxyphenylamino)benzoyl]piperidine] | 12% | 32% | 44% | – | – | – | – | – | – | – | –
9 | CNC(=O)c1ccc(Cl)cc1Nc1ccc(O)cc1 [Example 21(b), 4-Chloro-2-(4-hydroxyphenylamino)-N-methylbenzamide] | – | – | – | > 1000 nM | 360 nM | 180 nM | – | – | – | – | –
10 | COc1ccc(Nc2ccc(O)cc2)c(C(=O)NCc2ccccc2)c1 [Example 22(d), 2-(4-Hydroxyphenylamino)-N-benzyl-5-methoxybenzamide] | 0% | – | – | > 1000 nM | 300 nM | 260 nM | 81% | 97% | – | – | –
11 | COc1ccc(Nc2ccc(O)cc2)c(C(=O)N2CCCCC2)c1 [Example 23(b), 1-[2-(4-Hydroxyphenylamino)-5-methoxybenzoyl]piperidine] | 19% | – | – | > 1000 nM | 540 nM | 610 nM | 89% | 96% | – | – | –
12 | O=C(c1ccccc1Nc1cccc(O)c1)N1CCCCC1 [Example 24(d), 1-[2-(3-Hydroxyphenylamino)benzoyl]piperidine] | – | – | – | – | – | – | – | – | 42% | 47% | 56%

From patent US4510139A, “Substituted aminobenzamides and their use as agents which inhibit lipoxygenase activity” (Sterling Drug Inc., priority 1984, dated 1985)
